Results published in article PMC7156458, “Synthetic biology based construction of biological activity-related library of fungal decalin-containing diterpenoid pyrones” (Nature Communications, 2020).

Biological target: Aβ42 (Homo sapiens, UniProt P05067)
Experiment: Th-T (thioflavin-T) assay of Aβ42 aggregation
Assay type: biochemical
Details: for Th-T fluorescence, mean of three wells: Aβ42 aggregation time course

Aβ42, sequence (P05067 672-713): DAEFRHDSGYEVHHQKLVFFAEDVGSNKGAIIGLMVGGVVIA

Compound: C=C1CCC2C(C)(CCC=C(C)C)C(O)CCC2(C)C1Cc1c(OC)oc(CO)c(C)c1=O (stereo not drawn) [Compound 12]
- delay of the nucleation phase: no delay
- elongation of Aβ42: partly suppressed the elongation of Aβ42
- first Th-T assay result (Aβ42 (10 μM) ± DPPs (20 μM), room temperature): suppressed Aβ42
- Th-T fluorescence, mean of three wells (reading M117): 2.054
- Th-T fluorescence, mean of three wells (reading M118): 2.063
- Th-T fluorescence, mean of three wells (reading M119): 2.053
- Th-T fluorescence, mean of three wells (reading M120): 2.05
- Th-T fluorescence, mean of three wells (reading M121): 2.047
- Th-T fluorescence, mean of three wells (reading M122): 2.039
- Th-T fluorescence, mean of three wells (reading M123): 2.052
- Th-T fluorescence, mean of three wells (reading M124): 2.0354
- Th-T fluorescence, mean of three wells (reading M125): 2.03
- Th-T fluorescence, mean of three wells (reading M126): 2.03
- Th-T fluorescence, mean of three wells (reading M127): 2.041
- Th-T fluorescence, mean of three wells (reading M128): 2.036
- Th-T fluorescence, mean of three wells (reading M129): 2.023
- Th-T fluorescence, mean of three wells (reading M130): 2.033
- Th-T fluorescence, mean of three wells (Fig. 7a) (column suffix _10, measurement M19): 2.572
- Th-T fluorescence, mean of three wells (Fig. 7a) (column suffix _10, measurement M20): 2.604
- Th-T fluorescence, mean of three wells (Fig. 7a) (column suffix _10, measurement M21): 2.632
- Th-T fluorescence, mean of three wells (Fig. 7a) (column suffix _10, measurement M22): 2.671
- Th-T fluorescence, mean of three wells (Fig. 7a) (column suffix _10, measurement M23): 2.692
- Th-T fluorescence, mean of three wells (Fig. 7a) (column suffix _10, measurement M24): 2.757
- Th-T fluorescence, mean of three wells (Fig. 7a) (column suffix _10, measurement M25): 2.768
- Th-T fluorescence, mean of three wells (Fig. 7a) (column suffix _10, measurement M26): 2.841
- Th-T fluorescence, mean of three wells (Fig. 7a) (column suffix _10, measurement M27): 2.803
- Th-T fluorescence, mean of three wells (Fig. 7a) (column suffix _10, measurement M28): 2.855
- Th-T fluorescence, mean of three wells (Fig. 7a) (column suffix _10, measurement M29): 2.853
- Th-T assay signal, mean of three wells (Fig. 7a) (column suffix _10, reading M1): 0.2279
- Th-T assay signal, mean of three wells (Fig. 7a) (column suffix _10, reading M2): 0.2383
- Th-T assay signal, mean of three wells (Fig. 7a) (column suffix _10, reading M3): 0.2633
- Th-T assay signal, mean of three wells (Fig. 7a) (column suffix _10, reading M4): 0.2928
- Th-T assay signal, mean of three wells (Fig. 7a) (column suffix _10, reading M5): 0.3222
- Th-T assay signal, mean of three wells (Fig. 7a) (column suffix _10, reading M6): 0.3621
- Th-T assay signal, mean of three wells (Fig. 7a) (column suffix _10, reading M7): 0.3868
- Th-T assay signal, mean of three wells (Fig. 7a) (column suffix _10, reading M8): 0.4315
- Th-T assay signal, mean of three wells (Fig. 7a) (column suffix _10, reading M9): 0.4649
- Th-T assay signal, mean of three wells (Fig. 7a) (column suffix _10, reading M10): 0.5209
- Th-T assay signal, mean of three wells (Fig. 7a) (column suffix _10, reading M11): 0.5656
- Th-T assay signal, mean of three wells (Fig. 7a) (column suffix _10, reading M12): 0.6921
- Th-T assay signal, mean of three wells (Fig. 7a) (column suffix _10, reading M13): 1.089
- Th-T assay signal, mean of three wells (Fig. 7a) (column suffix _10, reading M14): 1.582
- Th-T assay signal, mean of three wells (Fig. 7a) (column suffix _10, reading M15): 1.98
- Th-T assay signal, mean of three wells (Fig. 7a) (column suffix _10, reading M16): 2.245
- Th-T assay signal, mean of three wells (Fig. 7a) (column suffix _10, reading M17): 2.406
- Th-T assay signal, mean of three wells (Fig. 7a) (column suffix _10, reading M18): 2.511
- Fig. 7a Th-T reading, mean of three wells (column suffix _10, reading M85): 3.136
- Fig. 7a Th-T reading, mean of three wells (column suffix _10, reading M86): 3.133
- Fig. 7a Th-T reading, mean of three wells (column suffix _10, reading M87): 3.112
- Fig. 7a Th-T reading, mean of three wells (column suffix _10, reading M88): 3.093
- Fig. 7a Th-T reading, mean of three wells (column suffix _10, reading M89): 3.066
- Fig. 7a Th-T reading, mean of three wells (column suffix _10, reading M90): 3.046
- Fig. 7a Th-T reading, mean of three wells (column suffix _10, reading M91): 3.03
- Fig. 7a Th-T reading, mean of three wells (column suffix _10, reading M92): 3.012
- Fig. 7a Th-T reading, mean of three wells (column suffix _10, reading M93): 2.997
- Fig. 7a Th-T reading, mean of three wells (column suffix _10, reading M94): 2.971
- Fig. 7a Th-T reading, mean of three wells (column suffix _10, reading M95): 2.948
- Fig. 7a Th-T reading, mean of three wells (column suffix _10, reading M96): 2.943
- Fig. 7a Th-T reading, mean of three wells (column suffix _10, reading M97): 2.923
- Fig. 7a Th-T reading, mean of three wells (column suffix _10, reading M98): 2.913
- Fig. 7a Th-T reading, mean of three wells (column suffix _10, reading M99): 2.8964
- Fig. 7a Th-T reading, mean of three wells (column suffix _10, reading M100): 2.873
- Fig. 7a Th-T reading, mean of three wells (column suffix _10, reading M101): 2.854
- Fig. 7a Th-T reading, mean of three wells (column suffix _10, reading M102): 2.835
- Fig. 7a Th-T reading, mean of three wells (column suffix _10, reading M103): 2.818
- Fig. 7a Th-T reading, mean of three wells (column suffix _10, reading M104): 2.806
- Fig. 7a Th-T reading, mean of three wells (column suffix _10, reading M105): 2.7797
- Fig. 7a Th-T reading, mean of three wells (column suffix _10, reading M106): 2.769
- Th-T fluorescence, mean of three wells (Fig. 7a) (column suffix _20, measurement M19): 2.538
- Th-T fluorescence, mean of three wells (Fig. 7a) (column suffix _20, measurement M20): 2.543
- Th-T fluorescence, mean of three wells (Fig. 7a) (column suffix _20, measurement M21): 2.5199
- Th-T fluorescence, mean of three wells (Fig. 7a) (column suffix _20, measurement M22): 2.494
- Th-T fluorescence, mean of three wells (Fig. 7a) (column suffix _20, measurement M23): 2.481
- Th-T fluorescence, mean of three wells (Fig. 7a) (column suffix _20, measurement M24): 2.476
- Th-T fluorescence, mean of three wells (Fig. 7a) (column suffix _20, measurement M25): 2.43
- Th-T fluorescence, mean of three wells (Fig. 7a) (column suffix _20, measurement M26): 2.427
- Th-T fluorescence, mean of three wells (Fig. 7a) (column suffix _20, measurement M27): 2.441
- Th-T fluorescence, mean of three wells (Fig. 7a) (column suffix _20, measurement M28): 2.387
- Th-T fluorescence, mean of three wells (Fig. 7a) (column suffix _20, measurement M29): 2.411
- Th-T fluorescence, mean of three wells (Fig. 7a) (column suffix _20, measurement M30): 2.389
- Th-T assay signal, mean of three wells (Fig. 7a) (column suffix _20, reading M1): 0.2949
- Th-T assay signal, mean of three wells (Fig. 7a) (column suffix _20, reading M2): 0.3314
- Th-T assay signal, mean of three wells (Fig. 7a) (column suffix _20, reading M3): 0.3699
- Th-T assay signal, mean of three wells (Fig. 7a) (column suffix _20, reading M4): 0.6391
- Th-T assay signal, mean of three wells (Fig. 7a) (column suffix _20, reading M5): 1.147
- Th-T assay signal, mean of three wells (Fig. 7a) (column suffix _20, reading M6): 1.822
- Th-T assay signal, mean of three wells (Fig. 7a) (column suffix _20, reading M7): 2.22
- Th-T assay signal, mean of three wells (Fig. 7a) (column suffix _20, reading M8): 2.421
- Th-T assay signal, mean of three wells (Fig. 7a) (column suffix _20, reading M9): 2.522
- Th-T assay signal, mean of three wells (Fig. 7a) (column suffix _20, reading M10): 2.562
- Th-T assay signal, mean of three wells (Fig. 7a) (column suffix _20, reading M11): 2.583
- Th-T assay signal, mean of three wells (Fig. 7a) (column suffix _20, reading M12): 2.606
- Th-T assay signal, mean of three wells (Fig. 7a) (column suffix _20, reading M13): 2.583
- Th-T assay signal, mean of three wells (Fig. 7a) (column suffix _20, reading M14): 2.612
- Th-T assay signal, mean of three wells (Fig. 7a) (column suffix _20, reading M15): 2.602
- Th-T assay signal, mean of three wells (Fig. 7a) (column suffix _20, reading M16): 2.5699
- Th-T assay signal, mean of three wells (Fig. 7a) (column suffix _20, reading M17): 2.585
- Th-T assay signal, mean of three wells (Fig. 7a) (column suffix _20, reading M18): 2.567
- Fig. 7a Th-T reading, mean of three wells (column suffix _20, reading M85): 2.083
- Fig. 7a Th-T reading, mean of three wells (column suffix _20, reading M86): 2.058
- Fig. 7a Th-T reading, mean of three wells (column suffix _20, reading M87): 2.078
- Fig. 7a Th-T reading, mean of three wells (column suffix _20, reading M88): 2.109
- Fig. 7a Th-T reading, mean of three wells (column suffix _20, reading M89): 2.106
- Fig. 7a Th-T reading, mean of three wells (column suffix _20, reading M90): 2.088
- Fig. 7a Th-T reading, mean of three wells (column suffix _20, reading M91): 2.094
- Fig. 7a Th-T reading, mean of three wells (column suffix _20, reading M92): 2.104
- Fig. 7a Th-T reading, mean of three wells (column suffix _20, reading M93): 2.083
- Fig. 7a Th-T reading, mean of three wells (column suffix _20, reading M94): 2.114
- Fig. 7a Th-T reading, mean of three wells (column suffix _20, reading M95): 2.102
- Fig. 7a Th-T reading, mean of three wells (column suffix _20, reading M96): 2.08
- Fig. 7a Th-T reading, mean of three wells (column suffix _20, reading M97): 2.11
- Fig. 7a Th-T reading, mean of three wells (column suffix _20, reading M98): 2.085
- Fig. 7a Th-T reading, mean of three wells (column suffix _20, reading M99): 2.135
- Fig. 7a Th-T reading, mean of three wells (column suffix _20, reading M100): 2.117
